Assay results published in patent publication US6548536B2, “Agent for inducing apoptosis” (Kyowa Hakko Kogyo Co., Ltd., priority 1998, dated 2003).
≈ marks a conversion by molar mass, not a printed value.

Tests used:
Assay type in all cases: cell-based
[1] = system: Staphylococcus aureus ATCC6538P; assay: Antibacterial activity, agar dilution method; set-up: key: —: Inactive; settings: pH 7
Description: (§1) Antibacterial activity was determined by the agar dilution method using a medium prepared by dissolving 3 g of Bacto trypton (Difco), 3 g of meat extract, 1 g of yeast extract, 1 g of glucose, and 16 g of agar in 1 L of water (pH 7). The antibacterial activities of typical compounds are shown in Table 6 as minimum growth inhibitory concentrations (MIC)

[2] = system: Bacillus Subtilis ATCC107O7; assay: Antibacterial activity, agar dilution method; set-up: key: —: Inactive; settings: pH 7
Description: as §1

[3] = system: Enterococcus hirae ATCC10541; assay: Antibacterial activity, agar dilution method; set-up: key: —: Inactive; settings: pH 7
Description: as §1

[4] = system: MCF-7 cell; assay: Growth inhibition test for hormone-dependent human breast cancer MCF-7 cell strain (MTT); settings: 72 hours
Description: Cells were placed in each well of a 96-well microplate (Nunc, #167008) in an amount of 4000 cells per well, and the cells were pre-cultured in RPMI 1640 medium containing 5% fetal calf serum (FCS) for 24 hours in a 5% carbon dioxide gas incubator at 37° C. Then, a solution of each test compound in dimethyl sulfoxide (DMSO) prepared at a concentration of 10 mmol/L was serially diluted with the culture medium and added to each well (final volume: 100 μL/well). The cells were then further cultured for 72 hours in a 5% carbon dioxide gas incubator at 37° C. Five hours before completion of the culture, 4,5-dimethylthiazol-2-yl)-2,5-diphenyltetrazolium bromide (Sigma, abbreviated as “MTT” hereinafter) prepared at a concentration of 6 mg/mL with the culture medium was added in an amount of 10 μL per well. After the completion of culture, the medium was sucked, DMSO was added to each well in an amount of 150 μL per well and the mixture was vigorously stirred by using a plate mixer to completely dissolve the crystals of MTT-formazan. Then, difference of absorbance at 550 nm and 630 nm was determined by using a microplate reader (M-Spmax250, Wako Pure Chemicals). Inhibitory activity on the cell growth was calculated as 50% growth inhibitory concentration (IC50) based on a 4-parameter logistic calibration curve by using the formula of the analysis software (SOFTmax-J Ver.2.1) equipped with microplate reader.

[5] = system: HeLa/bcl-2 cells; assay: Anti-Fas antibody-dependent apoptosis inducing activity for HeLa/bcl-2 cells; settings: Drug concentration: 5 μM, added simultaneously with anti-Fas monoclonal antibody (CH11, 10 ng); 6 hours; Anti-Fas antibody = 100
Excerpt: In HeLa/bcl-2 cells into which the bcl-2 gene is introduced, apoptosis is suppressed by the bcl-2 gene. For this reason, they acquire resistance to apoptosis induced by various anticancer agents or anti-Fas antibodies. Test compounds were examined in their eliminating effect on the apoptosis resistance of HeLa/bcl-2 by simultaneously adding an anti-Fas antibody and each test compound to HeLa/bcl-2 cells and detecting enzymatic activity of caspase that was activated in the process of apoptosis induction as described below. HeLa/bcl-2 cells in Medium A were placed in each well of a 96-well microtiter plate in an amount of 3×10^4 cells. The plate was incubated in a carbon dioxide gas incubator at 37° C. for 12 hours, then each test compound appropriately diluted with Medium A (10 μl) and an anti-Fas monoclonal antibody (CH11, 10 ng) were simultaneously added to each well, and the plate was further incubated in a carbon dioxide gas incubator at 37° C. for 6 hours. After the culture supernatant was removed, the cells were lysed, and caspase activity was measured in the same manner as in Test Example 1. The enzymatic activity of caspase, which was not increased by an anti-Fas antibody alone, was increased by the treatment with the anti-Fas antibody together with the test compound.

[6] = system: HeLa cells; assay: Apoptosis inducing activity (caspase activation, Ac-DEVD-AMC) for HeLa cells; settings: Drug concentration: 5 μM; 6 hours; No drug = 100
Description: (§2) Apoptosis inducing activity of the medicaments of the present invention was determined by measuring enzymatic activity of caspase activated in the process of apoptosis induction as described below,. HeLa cells or HeLa cells into which the bcl-2 gene was introduced (HeLa/bcl-2 cells) contained in DME medium containing 10% fetal calf serum (NISSUI PHARMACEUTICAL CO., LTD., referred to as “Medium A” hereinafter in the example) were placed in each well of 96-well microtiter plates in an amount of 3×10^4 cell. The cells on the plates were cultured in a carbon dioxide gas incubator at 37° C. for 12 hours, then a test compound appropriately diluted with Medium A was added to each well in an amount of 10 μl, and the cells were further cultured in a carbon dioxide gas incubator at 37° C. for 6 hours. After the culture supernatant was removed, the cells were lysed, and to the cell lysate was added a fluorescent substrate of caspase, Ac-DEVD-AMC (Peptide Laboratory). Then, the caspase activity was determined by measuring AMC (7-amino-4-methylcoumarin) released as a result of degradation of Ac-DEVD-AMC by caspase remained in the cell lysate through measurement of fluorescence intensity at 460 nm.

[7] = system: HeLa/bcl-2 cells; assay: Cytotoxic activity for HeLa/bcl-2 cells (XTT staining); settings: 24 hours, read-out: Growth Inhibition (IC50), HeLa/bcl-2 cell
Description: HeLa/bcl-2 cells in Medium A were placed in each well of a 96-well microtiter plate in an amount of 3×10^4 cells. The plate was incubated in a carbon dioxide gas incubator at 37° C. for 12 hours, then 10 μl of each test compound appropriately diluted with Medium A was added to each well, and the incubation was further continued in a carbon dioxide gas incubator at 37° C.

[8] = system: HeLa/bcl-2 cells; assay: Apoptosis inducing activity (caspase activation, Ac-DEVD-AMC) for HeLa/bcl-2 cells; settings: Drug concentration: 5 μM; 6 hours; No drug = 100
Description: as §2

Compound | MIC, SA [1] | MIC, BS [2] | MIC, EH [3] | IC50 [4] | Rate of Caspase Activation, HeLa/bcl-2 cell [5] | Rate of Caspase Activation, HeLa cell [6] | IC50 [7] | Rate of Caspase Activation, HeLa/bcl-2 cell [8]
CC[Si](CC)(CC)OC1C=CC(OC2C(C)CC(C)C3C2C=CC2C(C)=CCC(OC4CC(C)([N+](=O)[O-])C(NC(=O)OC)C(C)O4)C(C)=CC4C(OC(C)=O)C=C(C=O)CC45OC(=O)C(=C5O)C(=O)C23C)OC1C (stereo not shown) [Compound 63] | — | >91.7 µg/mL | — | 720 nM |  |  |  | 
COC(=O)C=CC1=CC(O)C2/C=C(\C)C(OC3CC(C)([N+](=O)[O-])C(NC(=O)OC)C(C)O3)C/C=C(\C)C3C=CC4C(OC5CC(OC6CCC(OC7CC(O)C(OC8CCC(O)C(C)O8)C(C)O7)C(C)O6)C(OC(C)=O)C(C)O5)C(C)CC(C)C4C3(C)C(=O)C3=C(O)C2(C1)OC3=O (stereo not shown) [Compound 37] | — | 0.42 µg/mL (≈ 0.307 µM) | — | 5110 nM |  |  |  | 
COC(=O)NC1C(C)OC(OC2C/C=C(\C)C3C=CC4C(O[Si](C)(C)C(C)(C)C)C(C)CC(C)C4C3(C)C(=O)C3=C(O)C4(CC(C=O)=CC(O)C4/C=C/2C)OC3=O)CC1(C)[N+](=O)[O-] (stereo not shown) [Compound 22] | 42 µg/mL (≈ 46.8 µM) | — | 21 µg/mL (≈ 23.4 µM) |  | 444% | 243% | 1800 nM | 1078%
CCOC(OCC)C1=CC(O)C2/C=C(\C)C(OC3CC(C)([N+](=O)[O-])C(NC(=O)OC)C(C)O3)C/C=C(\C)C3C=CC4C(OC5CC(OC6CCC(OC7CC(O)C(OC8CCC(O)C(C)O8)C(C)O7)C(C)O6)C(OC(C)=O)C(C)O5)C(C)CC(C)C4C3(C)C(=O)C3=C(OC)C2(C1)OC3=O (stereo not shown) [Compound 38] | — | 12.5 µg/mL (≈ 8.92 µM) | — | 1220 nM |  |  |  | 
COC(=O)NC1C(C)OC(OC2CC=C(C)C3C=CC4C(OC5CC(OC(C)=O)C(OC(C)=O)C(C)O5)C(C)CC(C)C4C3(C)C(=O)C3=C(O)C4(CC(C=O)=CC(OC(C)=O)C4C=C2C)OC3=O)CC1(C)[N+](=O)[O-] (stereo not shown) [Compound 59] | >66.7 µg/mL | 16.7 µg/mL (≈ 16.1 µM) | >66.7 µg/mL | 980 nM |  |  |  | 
COC(=O)NC1C(C)OC(OC2CC=C(C)C3C=CC4C(OC5(C)OC6OC(COC(C)=O)C(OC(C)=O)C(OC(C)=O)C6O5)C(C)CC(C)C4C3(C)C(=O)C3=C(O)C4(CC(C=O)=CC(OC(C)=O)C4C=C2C)OC3=O)CC1(C)[N+](=O)[O-] (stereo not shown) [Compound 66] | 60.0 µg/mL (≈ 51.9 µM) | >60.0 µg/mL | 60.0 µg/mL (≈ 51.9 µM) | 1400 nM |  |  |  | 
COC(=O)NC1C(C)OC(OC2CC=C(C)C3C=CC4C(OC5CC(OCc6ccccc6)C(OCc6ccccc6)C(COCc6ccccc6)O5)C(C)CC(C)C4C3(C)C(=O)C3=C(O)C4(CC(C=O)=CC(OC(C)=O)C4C=C2C)OC3=O)CC1(C)[N+](=O)[O-] (stereo not shown) [Compound 56] |  |  |  | 630 nM |  |  |  | 
COC(=O)NC1C(C)OC(OC2C/C=C(\C)C3C=CC4C(OC5CCCCO5)C(C)CC(C)C4C3(C)C(=O)C3=C(O)C4(CC(C=O)=CC(OC(C)=O)C4/C=C/2C)OC3=O)CC1(C)[N+](=O)[O-] (stereo not shown) [Compound 51] | 1.56 µg/mL (≈ 1.72 µM) | 6.25 µg/mL (≈ 6.88 µM) | 1.56 µg/mL (≈ 1.72 µM) | 1360 nM | 460% |  |  | 
COC(=O)NC1C(C)OC(OC2CC=C(C)C3C=CC4C(OC5CC(OCc6ccccc6)C(OCc6ccccc6)C(COCc6ccccc6)O5)C(C)CC(C)C4C3(C)C(=O)C3=C(O)C4(CC(C=O)=CC(O)C4C=C2C)OC3=O)CC1(C)[N+](=O)[O-] (stereo not shown) [Compound 55] |  |  |  |  |  | 106% |  | 448%
COC(=O)NC1C(C)OC(OC2CC=C(C)C3C=CC4C(OC5C=CC(OC(C)=O)C(C)O5)C(C)CC(C)C4C3(C)C(=O)C3=C(O)C4(CC(C=O)=CC(OC(C)=O)C4C=C2C)OC3=O)CC1(C)[N+](=O)[O-] (stereo not shown) [Compound 61] | — | 10.4 µg/mL (≈ 10.6 µM) | — | 1450 nM | 452% | 213% |  | 370%
COC(=O)NC1C(C)OC(OC2C/C=C(\C)C3C=CC4C(OC5CC(OC6CCC(OC7CC(OC(C)=O)C(O)C(C)O7)C(C)O6)C(OC(C)=O)C(C)O5)C(C)CC(C)C4C3(C)C(=O)C3=C(O)C4(CC(C=O)=CC(OC(C)=O)C4/C=C/2C)OC3=O)CC1(C)[N+](=O)[O-] (stereo not shown) [Compound 65] | — | 2.34 µg/mL (≈ 1.82 µM) | — | 520 nM | 659% |  |  | 
COC(=O)NC1C(C)OC(OC2C/C=C(\C)C3C=CC4C(OC5CC(OC6CCC(O)C(C)O6)C(OC(C)=O)C(C)O5)C(C)CC(C)C4C3(C)C(=O)C3=C(O)C4(CC(C=NO)=CC(O)C4/C=C/2C)OC3=O)CC1(C)[N+](=O)[O-] (stereo not shown) [Compound 25] | — | >83 µg/mL | — |  |  |  |  | 
COC(=O)NC1C(C)OC(OC2CC=C(C)C3C=CC4C(OC5C=CC(O)C(C)O5)C(C)CC(C)C4C3(C)C(=O)C3=C(O)C4(CC(C=O)=CC(OC(C)=O)C4C=C2C)OC3=O)CC1(C)[N+](=O)[O-] (stereo not shown) [Compound 60] | — | >83.3 µg/mL | — |  | 526% |  |  | 
COC(=O)NC1C(C)OC(OC2C/C=C(\C)C3C=CC4C(OC5CC(OC6CCC(OC7CC(O)C(O)C(C)O7)C(C)O6)C(OC(C)=O)C(C)O5)C(C)CC(C)C4C3(C)C(=O)C3=C(O)C4(CC(C=NO)=CC(O)C4/C=C/2C)OC3=O)CC1(C)[N+](=O)[O-] (stereo not shown) [Compound 24] | >92 µg/mL | 2.9 µg/mL (≈ 2.39 µM) | >92 µg/mL |  |  |  |  | 
COC(=O)NC1C(C)OC(OC2C/C=C(\C)C3C=CC4C(OC5CC(OC6CCC(OC7CC(O)C(OC8CCC(O)C(C)O8)C(C)O7)C(C)O6)C(OC(C)=O)C(C)O5)C(C)CC(C)C4C3(C)C(=O)C3=C(O)C4(CC(C=O)=CC(O)C4/C=C/2C)OC3=O)CC1(C)[N+](=O)[O-] (stereo not shown) [Compound 1] |  |  |  |  | 964% |  |  | 
